According to US20230012368A1 (Hoffmann-La Roche Inc., priority 2018, published 2023):
Counter-ions that a name gives are not always drawn. Like-named read-outs stand apart in the source and are kept apart here.

Test system: Acinetobacter baumannii ATCC 17978
Assay: Antimicrobial susceptibility testing: 90% growth inhibitory concentration (IC90) determination
Format: cell-based
Settings: 90% growth inhibitory concentration, Acinetobacter baumannii ATCC17978, Iso-Sensitest broth, OD 600 nm over 16h, read-out: ATCC17978 IC90
Outline: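 Compounds serially twofold diluted (e.g. 50 to 0.097 μM final) in Iso-Sensitest broth, inoculated at ~5×10^(5) CFU/ml, incubated at 35±2° C. OD600 read every 20 minutes over 16h. IC90 taken as concentration inhibiting 90% of growth during logarithmic phase.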

[1] = Acinetobacter baumannii, ATCC17978, 16 h

| IC90 [1] [nM] | SMILES | IC90 [nM] |
| --- | --- | --- |
| 340 | CCc1cc(Nc2nccn3c(-c4ccc(OC)c(F)c4F)cnc23)ccc1C(=O)NCCCNC(=O)[C@H](CCCNC(=N)N)NC(=O)[C@@H](N)CCC(=O)O [Example 156, (S)-4-amino-5-(((S)-1-((3-(4-((3-(2,3-difluoro-4-methoxyphenyl)imidazo[1,2-a]pyrazin-8-yl)amino)-2-ethylbenzamido)propyl)amino)-5-guanidino-1-oxopentan-2-yl)amino)-5-oxopentanoic acid trihydrochloride] | – |
| 2200 | COC(=O)[C@H](CCCCNC(=O)c1ccc(Nc2nccn3c(-c4ccc(OC(F)F)cc4)cnc23)cc1C)NC(=O)OC(C)(C)C [Example 245, methyl (2S)-6-[[4-[[3-[4-(difluoromethoxy)phenyl]im-idazo[1,2-a]pyrazin-8-yl]amino]-2-methylbenzoyl]amino]-2-[(2-methylpropan-2-yl)oxycarbonylamino]hexa-noate] | – |
| 7100 | Cc1cc(Nc2nccn3c(-c4ccc(OC(F)F)cc4)cnc23)ccc1C(=O)N[C@@H](C)CN [Example 269, N-[(2S)-1-aminopropan-2-yl]-4-[[3-[4-(difluoromethoxy)phenyl]im-idazo[1,2-a]pyrazin-8-yl]amino]-2-methylbenzamide;hydrochlo-ride] | – |
| 1100 | COc1ccc(-c2cnc3c(Nc4ccc(C(=O)NCCNC(=O)N5CCN[C@H](C(=O)O)C5)c(C)c4)nccn23)c(F)c1F [Example 348, (2S)-4-[2-[[4-[[3-(2,3-difluoro-4-methoxyphenyl)imidazo[1,2-a]pyrazin-8-yl]amino]-2-methylbenzoyl]amino]ethyl-carbamoyl]piperazine-2-carboxylic acid;formic acid] | – |
| 90 | CCc1cc(Nc2nccn3c(-c4ccc(OCC#N)c(F)c4F)cnc23)ccc1C(=O)NCCNC(=O)[C@@H](N)CCCNC(=N)N [Example 124, N-[2-[[(2S)-2-amino-5-guanidino-pentanoyl]amino]ethyl]-4-[[3-[4-(cyanomethoxy)-2,3-difluoro-phenyl]imidazo[1,2-a]pyrazin-8-yl]amino]-2-ethyl-benzamide formate] | – |
| 23 | N#CCOc1ccc(-c2cnc3c(Nc4ccc(C(=O)NCCCCCN)c(Cl)c4)nccn23)c(F)c1F [Example 496, N-(5-aminopentyl)-2-chloro-4-[[3-[4-(cyanomethoxy)-2,3-difluorophenyl]imidazo[1,2-a]pyrazin-8-yl]amino]benzamide] | – |
| 90 | CCc1cc(Nc2nccn3c(-c4ccc(OCC#N)c(F)c4Cl)cnc23)ccc1C(=O)NCCNC(=O)[C@H](N)CCCNC(=N)N [Example 127, N-[2-[[(2R)-2-amino-5-guanidino-pentanoyl]amino]ethyl]-4-[[3-[2-chloro-4-(cyanomethoxy)-3-fluoro-phenyl]imidazo[1,2-a]pyrazin-8-yl]amino]-2-ethyl-benzamide formate] | – |
| 90 | CCc1cc(Nc2nccn3c(-c4ccc(OC)c(F)c4F)cnc23)ccc1C(=O)NCCNC(=O)[C@@H](N)CCNC(=N)N [Example 131, N-[2-[[(2S)-2-amino-4-guanidino-butanoyl]amino]ethyl]-4-[[3-(2,3-difluoro-4-methoxy-phenyl)imidazo[1,2-a]pyrazin-8-yl]amino]-2-ethyl-benzamide formate] | – |
| 910 | CCc1cc(Nc2nccn3c(-c4ccc(Oc5ccccn5)c(F)c4F)cnc23)ccc1C(=O)NCC(=O)N1CCN[C@H](CO)C1 [Example 474, 4-[[3-[2,3-difluoro-4-(2-pyridyloxy)phenyl]imidazo [1,2-a]pyrazin-8-yl]amino]-2-ethyl-N-[2-[(3S)-3-(hydroxymethyl)piperazin-1-yl]-2-oxo-ethyl]benzamide] | – |
| – | CCc1cc(Nc2nccn3c(-c4ccc(OC)c(F)c4F)cnc23)ccc1C(=O)N[C@H](CN)CO [Example 539, N-[(1R)-1-(aminomethyl)-2-hydroxy-ethyl]-4-[[3-(2,3-difluoro-4-methoxy-phenyl)imidazo[1,2-a]pyrazin-8-yl]amino]-2-ethyl-benzamide; formic acid] | 410 |
| 360 | CCc1cc(Nc2nccn3c(-c4ccc(OC)c(F)c4F)cnc23)ccc1C(=O)NCC(O)CN1CCCC1 (stereo not drawn) [Example 304, 4-[[3-(2,3-difluoro-4-methoxyphenyl)imidazo[1,2-a]pyrazin-8-yl]amino]-2-ethyl-N-(2-hydroxy-3-pyrrolidin-1-ylpropyl)benzamide] | – |
| 1200 | CCc1cc(Nc2nccn3c(-c4ccc(OC)c(F)c4F)cnc23)ccc1C(=O)NCCNC(=O)N1CCN[C@H](C(=O)O)C1 [Example 350, (2S)-4-[2-[[4-[[3-(2,3-difluoro-4-methoxyphenyl)imidazo[1,2-a]pyrazin-8-yl]amino]-2-ethylbenzoyl]amino]ethylcar-bamoyl]piperazine-2-carboxylic acid;formic acid] | – |
| 4900 | COc1ccc(-c2cnc3c(Nc4ccc(C(=O)N(C)CCCN)cc4)nccn23)cc1 [Example 33, N-(3-aminopropyl)-4-((3-(4-methoxyphenyl)imidazo [1,2-a]pyrazin-8-yl)amino)-N-methylbenzamide hydrochloride] | – |
| 130 | CCc1cc(Nc2nccn3c(-c4ccc(OCC#N)c(F)c4F)cnc23)ccc1C(=O)NCCNC(=O)CC(O)CN (stereo not drawn) [Example 142, N-[2-[(4-amino-3-hydroxy-butanoyl)amino]ethyl]-4-[[3-[4-(cyanomethoxy)-2,3-difluoro-phenyl]imidazo[1,2-a]pyrazin-8-yl]amino]-2-ethyl-benzamide formate] | – |
| 8900 | COc1ccc(-c2cnc3c(Nc4ccc(C(=O)N(C)CCCC(=O)O)c(C)c4)nccn23)cc1F [Example 174, 4-[[4-[[3-(3-fluoro-4-methoxyphenyl)imidazo[1,2-a]pyrazin-8-yl]amino]-2-methylbenzoyl]-methylamino]butanoic acid] | – |
| 590 | Cc1cc(Nc2nccn3c(-c4ccc(OC(F)F)cc4)cnc23)ccc1C(=O)NCCCN1CCOCC1 [Example 209, 4-[[3-[4-(difluoromethoxy)phenyl]im-idazo[1,2-a]pyrazin-8-yl]amino]-2-methyl-N-(3-morpholin-4-ylpropyl)benzamide] | – |
| 360 | CCc1cc(Nc2nccn3c(-c4ccc(Oc5ccccn5)c(F)c4F)cnc23)ccc1C(=O)NCCCC(=O)N1CCN[C@H](CO)C1 [Example 476, 4-[[3-[2,3-difluoro-4-(2-pyridyloxy)phenyl]imidazo [1,2-a]pyrazin-8-yl]amino]-2-ethyl-N-[4-[(3S)-3-(hydroxymethyl)piperazin-1-yl]-4-oxo-butyl]benzamide] | – |
| 70 | CCc1cc(Nc2nccn3c(-c4ccc(OCC#N)c(F)c4F)cnc23)ccc1C(=O)NCCNC(=O)CCCN [Example 141, N-[2-(4-aminobutanoylamino)ethyl]-4-[[3-[4-(cyanomethoxy)-2,3-difluoro-phenyl]imidazo[1,2-a]pyrazin-8-yl]amino]-2-ethyl-benzamide formate] | – |
| 3600 | Cc1cc(Nc2nccn3c(-c4ccc(Cl)c(F)c4F)cnc23)ccc1C(=O)N[C@@H](C)CN [Example 258, N-[(2S)-1-aminopropan-2-yl]-4-[[3-(4-chloro-2,3-difluorophenyl)imidazo[1,2-a]pyrazin-8-yl]amino]-2-methylbenzamide;hydrochlo-ride] | – |
| 900 | CCc1cc(Nc2nccn3c(-c4ccc(Oc5ccc(F)cn5)c(F)c4F)cnc23)ccc1C(=O)NCCNC(=O)[C@H](N)CCCNC(=N)N [Example 424, N-[2-[[(2R)-2-amino-5-guanidino-pentanoyl]amino]ethyl]-4-[[3-[2,3-difluoro-4-[(5-fluoro-2-pyridyl)oxy]phenyl]imidazo [1,2-a]pyrazin-8-yl]amino]-2-ethyl-benzamide; formic acid] | – |
| 290 | COc1ccc(-c2cnc3c(Nc4ccc(C(=O)NCC5CCNC5)c(C)c4)nccn23)c(F)c1F (stereo not drawn) [Example 57, 4-[[3-(2,3-difluoro-4-methoxy-phenyl)imidazo[1,2-a]pyrazin-8-yl]amino]-2-methyl-N-(pyrrolidin-3-ylmethyl)benzamide] | – |
| 470 | COc1ccc(-c2cnc3c(Nc4ccc(C(=O)NCCN5CCN(C)CC5)c(C)c4)nccn23)cc1 [Example 49] | – |
| 770 | CCc1cc(Nc2nccn3c(-c4ccc(OC)c(F)c4F)cnc23)ccc1C(=O)NCC(O)CNC(=O)[C@@H](N)CCCCN (mixture of isomers) [Example 412, rac-N-(3-((R)-2,6-diaminohexanamido)-2-hydroxypropyl)-4-((3-(2,3-difluoro-4-methoxyphenyl)imidazo[1,2-a]pyrazin-8-yl)amino)-2-ethylbenzamide dihydrochloride] | – |
| 2200 | COc1ccc(-c2cnc3c(Nc4ccc(C(=O)NCC5CNCCN5)c(C)c4)nccn23)cc1F (stereo not drawn) [Example 246, 4-[[3-(3-fluoro-4-methoxyphenyl)imidazo[1,2-a]pyrazin-8-yl]amino]-2-methyl-N-(piperazin-2-ylmethyl)benzamide;hydrochlo-ride] | – |
| 380 | Cc1cc(Nc2nccn3c(-c4ccc(OC(F)F)cc4)cnc23)ccc1C(=O)NCCC1CCNCC1 [Example 196, 4-[[3-[4-(difluoromethoxy)phenyl]im-idazo[1,2-a]pyrazin-8-yl]amino]-2-methyl-N-(2-piperidin-4-ylethyl)benzamide;hydrochlo-ride] | – |
| 130 | COc1ccc(-c2cnc3c(Nc4ccc(C(=O)N[C@H](C)CN)c(C)c4)nccn23)c(F)c1F [Example 506, #N!-[(2#R!)-1-aminopropan-2-yl]-4-[[3-(2,3-difluoro-4-methoxyphenyl)imidazo[1,2-a]pyrazin-8-yl]amino]-2-methylbenzamide;dihydrochlo-ride] | – |
| 660 | CCc1cc(Nc2nccn3c(-c4ccc(Oc5ccncn5)c(F)c4F)cnc23)ccc1C(=O)N[C@@H](C)CNC(=O)[C@H](N)CCNC(=N)N [Example 458, N-[(1S)-2-[[(2R)-2-amino-4-guanidino-butanoyl]amino]-1-methyl-ethyl]-4-[[3-(2,3-difluoro-4-pyrimidin-4-yloxy-phenyl)imidazo[1,2-a]pyrazin-8-yl]amino]-2-ethyl-benzamide; formic acid] | – |
